Experimental findings from US12678438B2, “Treatment of cancer with CDK inhibitors” (THE TRUSTEES OF THE UNIVERSITY OF PENNSYLVANIA, priority 2019, dated 2026) are described below.

What all share (assay type): cell-based, human
Assay [1] relates to p-MED1 (p-T1457 MED1). Put plainly: Immunoblot of p-MED1 in AR-positive PCa cell lines (VCaP, LNCaP, 22RV1). The note with it: LNCaP. Here is the method: Cell lysates were prepared with RIPA buffer (Boston Bioproducts, BP-115DG)-10 mM Tris-HCl pH 7.5, 1 mM EDTA, 400 mM NaCl, 0.5% NP-40 and 1 mM DTT, supplemented with protease inhibitor cocktail (Pierce, A32965) and phosphatase inhibitor (Thermo, 1861280). For immunoblotting 200 μg total protein extract was boiled in sample buffer and 15-25 μg aliquots were separated by SDS-PAGE and transferred onto Polyvinylidene Difluoride membrane (GE Healthcare, IPVH00010). The membrane was incubated for one hour in blocking buffer [Tris-buffered saline, 0.1% Tween (TBS-T), 5% nonfat dry milk followed by overnight incubation on a rocker at 4° C. with the primary antibody. Following a wash with TBS-T, the blot was incubated with horseradish peroxidase-conjugated secondary antibody for 2 hrs on a rocker at room temperature. The blots were washed again and signals were visualized using enhanced chemiluminescence system as per manufacturer's protocol (GE Healthcare) or Kwik Quant Imager (Kindle Biosciences). Primary antibodies used in the immunoblotting (IB), immunoprecipitation (IP), and Chromatin Immunoprecipitation sequencing (ChIP-seq) assays are as follows: AR_IP, IB, ChIP-Seq (Millipore, 06-680); pS81-AR_IB (Millipore, 07-1375-EMD); RNA Pol II_IP, IB (Abcam, ab5408); ERG_IB (Abcam, a92513); PSA_IB (Dako, A0562); H3-acetyl K27_IP, IB, ChIP Seq (Abcam, ab32104) cPARP_IB (Cell Signaling Technology, 9541s); Cleaved caspase-3_IB (Cell Signaling Technology, 9664t); CDK7_IP, IB (Cell Signaling Technology, 2916s); CDK9_IP, IB (Cell Signaling Technology, 2316s); CDK12_IB (Cell Signaling Technology, 11973S); CDK13_IB (Sigma Cat. #ABE1860); Cyclin H_IB (Cell Signaling Technology, 2927T); HA_IP, IB (Cell Signaling Technology, 2367s); ERK1/2_IP, IB (Cell Signaling Technology, 9107s); phospho-ERK1/2_IB (Cell Signaling Technology, 9101s); phospho-Threonine_IB (Cell Signaling Technology, 9381s); PP2A alpha_IB (Abcam, ab32104); phospho-MED1_IB (Abcam, ab60950); Anti-GST_IB (Cell Signaling Technology, 2624); Anti-AKT_IB (Cell Signaling Technology, 9272); Anti-phosphoAKT_IB(Cell Signaling Technology, 4060); Anti-phospho-AR (Ser-515) _IB (Abeam, ab128250); Anti-RNA Pol 'LIB (Abeam, ab5408); Anti-phospho-pol II (Ser-5)_IB (Abeam, ab ab5095); Anti-phospho-CDK7 (Tlu-170) _IB (Millipore, ABS567); MED1_IP, IB, ChIP Seq (Bethyl, abA300-793A), Ki67_IHC (Cell Signaling Technology, 9661), and GAPDH (14C10), IB (Cell Signaling Technology, 3683s) for loading control.

In assay [2] the test system is chromatin-bound p-MED1/MED1. Put plainly: Chromatin-bound protein extraction and immunoblot. The note with it: DHT-stimulated LNCaP, 6 h; THZ1 100 nM, enzalutamide 5 μM. Here is the method: Chromatin bound protein extraction was performed following the protocol described in Pawar et al. Briefly, 10 million cells were collected and washed with DPBS, and were resuspended in 250 μl Buffer A (10 mM HEPES pH 7.9, 10 mM KCl, 1.5 mM MgCl2, 0.34 M sucrose, 10% glycerol, 1 mM DTT) supplemented with 0.1% TritonX-100 and incubated on ice for 10 min. The nuclei pellet was collected by centrifugation at 1300×g for 5 min at 4° C., washed in Buffer A and centrifuged again with the same settings. The nuclear pellet was then resuspended in Buffer B (3 mM EDTA, 0.2 mM EGTA, 1 mM DTT) and incubated on ice for 30 min. The chromatin pellet was collected by centrifugation at 1700×g for 5 min at 4° C., washed in Buffer B and centrifuged again with the same settings. The proteins were incubated on ice in Buffer B with 150 mM NaCl for 20 min and centrifuged at 1700×g for 5 min to remove proteins soluble in 150 mM salt concentrations. The pellet was then incubated in Buffer B with 300 mM NaCl on ice for 20 min and centrifuged again at 1700×g to obtain the final chromatin pellet. The chromatin pellet was dissolved in sample buffer, sonicated for 15 seconds, and boiled at 95° C. for 10 min. Samples were analyzed using Immunoblot analysis as described previously. All buffers were supplemented with Pierce protease inhibitor and Halt protease & phosphatase inhibitors.
(A western blot detects proteins with antibodies after separation by electrophoresis.)

Assay [3] has as its system MED1 and AR recruitment to the chromatin. Description: ChIP-seq of genome-wide MED1 and AR binding. The note with it: VCaP, 10 nM DHT plus 5 μM enzalutamide, 12 h. Here is the method:
ChIP was performed using iDeal ChIP-seq Kit for Transcription Factors (Diagenode, C01010170) according to manufacturer's protocol. In brief, the cells were crosslinked with 1% formaldehyde in culture medium for 10 min at room temperature. Cross-linking was terminated by the addition of 1/10 volume 1.25 M glycine for 5 min at room temperature followed by cell lysis and sonication (Bioruptor, Diagenode), resulting in an average chromatin fragment size of 200 bp. Chromatin equivalent to 5×10^6 cells was isolated and incubated with 10 μg antibody overnight at 4° C. (MED1, H3-acetyl K27, AR, and IgG (Diagenode). ChIP-seq libraries were prepared from the ChIP-enriched DNA samples using the TruSeq ChIP Library Preparation Kit (Illumina, IP-202-1012, IP-202-1024) and protocol. In brief, ChIP-enriched DNA (1-10 ng) was converted to blunt-ended fragments. A single A-base was added to fragment ends followed by ligation of Illumina adaptors. The adaptor-modified DNA fragments were enriched by PCR using the Illumina Barcode primers and Phusion DNA polymerase. PCR products were size selected using 3% NuSieve agarose gels (Lonza) followed by gel extraction using QIAEX II reagents (QIAGEN). Libraries were quantified with the Bioanalyzer 2100 (Agilent) and sequenced on the Illumina NextSeq 500 Sequencer (75 nucleotide read length).
Sequencing reads were quality checked with FASTQC (www.bioinformatics.babraham.ac.uk/projects/fastqc) and aligned to the GRCh37 (release 27) genome using the STAR v2.5.1 aligner with default settings. PCR duplicate reads in the aligned bam files were removed using samtools, bam files were converted to CPM normalized bigwig tracks using deeptools, and viewed using the Integrated Genomics Viewer or the UCSC genome browser. Single end reads were extended up to the fragment length (200 bp) along the read direction.
The enrichment peaks for the various transcription factors and histone marks were computed using MACS2, with default settings. Regions found to ubiquitously enriched across a number of next-generation sequencing experiments, also known as the blacklisted peaks (sites.google.com/site/anshulkundaje/projects/blacklists), were excluded in all subsequent analysis.

Assay [4] has as its system AR target genes. Put plainly: qRT-PCR of DHT-induced AR target gene expression. The note with it: LNCaP and VCaP, 10 μM enzalutamide. Here is the method:
For AR signaling stimulation experiments, cells were plated in complete media at required confluency. After 24 h cells were washed with DPBS and cultured in RPMI/DMEM without Phenol Red (Invitrogen, 11835030) and 10% charcoal-dextran stripped FBS (Gemini BioProducts, 100-119) for 72 h. Cells were then stimulated with 10 nM DHT for the specific time points.
Total RNA was isolated from cells using miRNeasy Mini Kit (Qiagen, 74106) and cDNA was synthesized from 1 μg total RNA using SuperScriptIV (Life Technologies, 18090200). qRT-PCR was performed using Fast SYBR Master Mix (Life Technologies, 4385617) or Taqman Fast Advance MMIX (Life Technologies, 4444964), and analyzed on QuantStudio3 (Applied Biosystems, USA). The target mRNA expression was quantified using ΔΔCt method, as normalized to GAPDH transcript levels. Primers were designed using Primer3 Input (version 0.4.0) (bioinfo.ut.ee/primer3-0.4.0/primer3) and synthesized by Integrated DNA Technologies.

Consider `COc1ccccc1-c1cc(Nc2cccc(CS(N)(=O)=O)c2)ncn1` [LDC], for which the p-MED1 levels entry in assay [1] (VCaP, 22RV1, standard culture conditions, 24 h (THZ1 and LDC also with DHT stimulation)) is “no such effect on p-MED1 levels”.

As for `CN(C)CCCC(=O)Nc1ccc(C(=O)Nc2cccc(Nc3ncc(Cl)c(-c4c[nH]c5ccccc45)n3)c2)cc1` [THZ1-R], the MED1 phosphorylation result in assay [1] (100 nM, 12 h) was “does not affect MEDI phosphorylation”.

For the compound `CNC(=O)c1ccc(N2C(=S)N(c3ccc(C#N)c(C(F)(F)F)c3)C(=O)C2(C)C)cc1F` [enzalutamide], the “chromatin-bound levels of p-MED1/MED1” value in assay [2] is “unable to completely dissociate p-MED1 from the chromatin”. In assay [3], the “MED1 chromatin association (ChIP-seq)” value is given as “completely abolished” and the “average ChIP-seq signal for AR” value is on record as “significantly reversed”. Further, in assay [4], the “DHT-induced AR target gene expression” value is given as “AR target reversal”.
